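Exposure lasted 48 hours, with cells grown in 96-well plates and compounds tested at five concentrations. GI50 = concentration required for 50% inhibition of growth. At the TGI there is no net growth.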

Among the test systems are DMS 114 small cell lung; COLO 205 colon; DLD-1 colon; HOP-62 NSCLC; SK-OV-3 ovarian; SK-MEL-2 melanoma; HOP-92 NSCLC; RPMI-8226 leukemia; HOP-18 NSCLC; OVCAR-8 ovarian; HL-60(TB) leukemia; DMS 273 small cell lung; SNB-78 CNS; IGROV1 ovarian.
Common to all, as to test: DTP human tumour cell line panel, 48 h

As for `COC(=O)C1c2cc3c(c(O)c2C(O)CC1(C)O)C(=O)c1c(O)cc2c(c1C3=O)OC1OC2(C)C(O)C(N(C)C)C1O` (stereo not given), the concentration for total growth inhibition (TGI) in the assay with DMS 114 small cell lung is > 100 µM; in the assay with COLO 205 colon, > 32.4 µM; in the assay on DLD-1 colon it was > 100 µM; with HOP-62 NSCLC, > 100 µM; with SK-OV-3 ovarian, > 27.8 µM; in the assay on SK-MEL-2 melanoma, > 100 µM. Also, the TGI is > 76.6 µM in the assay on HOP-92 NSCLC; > 100 µM with RPMI-8226 leukemia; > 100 µM in the assay with HOP-18 NSCLC; > 100 µM in the assay with OVCAR-8 ovarian; > 24.9 µM with HL-60(TB) leukemia; > 100 µM in the assay on DMS 273 small cell lung. For the same compound, the TGI in the assay with SNB-78 CNS is > 100 µM; in the assay with IGROV1 ovarian it was > 39.7 µM.
As for `CC1OC(=O)C(C(C)C)NC(=O)C(C(C)C)OC(=O)C(C(C)C)NC(=O)C(C)OC(=O)C(C(C)C)NC(=O)C(C(C)C)OC(=O)C(C(C)C)NC(=O)C(C)OC(=O)C(C(C)C)NC(=O)C(C(C)C)OC(=O)C(C(C)C)NC1=O` (stereo not given), the TGI in the assay on DMS 114 small cell lung was 0.0191 µM; with DLD-1 colon, 2.05 µM; in the assay on HOP-62 NSCLC, 0.0144 µM; in the assay with SK-OV-3 ovarian it was 0.225 µM; with SK-MEL-2 melanoma, 0.167 µM; in the assay with RPMI-8226 leukemia, 0.0158 µM. In addition, the concentration for total growth inhibition (TGI) was 0.0539 µM in the assay with HOP-18 NSCLC; 3.46 µM with OVCAR-8 ovarian; 0.0141 µM in the assay with DMS 273 small cell lung; 4.46 µM with SNB-78 CNS; 5.34 µM with IGROV1 ovarian. Moreover, the GI50 in the assay with COLO 205 colon, in the assay on HOP-62 NSCLC, with HOP-92 NSCLC, in the assay on OVCAR-8 ovarian and in the assay with HL-60(TB) leukemia was < 0.0001 µM each time.

The TGI is the concentration giving total growth inhibition. Low readings indicate greater sensitivity of the cells, high ones lower sensitivity of the cells. As usually defined, the GI50 is the concentration at which growth is held to half of that of the control.

For the origin of these results see PubChem BioAssay (NCI).
